From patent US20100311835A1, “CIS-9, TRANS-11 ISOMER OF CONJUGATED LINOLEIC ACID (CLA) FOR TREATING INFLAMMATORY DISEASES” (COGNIS IP MANAGEMENT GMBH, priority 2003, published 2010)

Experiments:
IL-6 [1] = test: IL-6 in cell culture supernatants by ELISA, stimulated BEAS-2B; type: cell-based, human
Method: (§1) • Cell cultures. The transformed human bronchial epithelial cell line BEAS-2B (Clonetics Cell Systems, St. Katharinen, Germany) and the normal human bronchial epithelial cell line in primary culture (American Type Culture Collection, Manassas, Va., USA) were cultured in T-25-tissue flasks in bronchial/tracheal epithelial cell basal medium (BEBM) supplemented with a variety of growth factors including bovine pituitary extract (0,052 mg/mL), human recombinant epidermal growth factor (0.5 ng/mL), hydrocortisone (0.5 μg/mL), epinephrine (0.5 μg/mL), transferrin (0.01 mg/mL), insulin (5 μg/mL), retinoic acid (0.1 ng/mL), triiodthyronine (6.5 ng/mL), gentamicin (0.05 mg/mL) and amphotericin (0.05 μg/mL), all purchased from Clonetics Cell Systems (St. Katharinen, Germany). Cultures were held at 37° C. in a humidified atmosphere of 5% CO2 in air and the medium was changed every other day. • Stimulation of cells and fatty acid supplementation. Cis-9,trans-11-CLA and linoleic acid (LA) were obtained from Matreya Inc. (Pleasant Gap, Pa., USA). Purified fatty acids in oil form were dissolved in 96% ethanol to give a 20-mM stock solution, which was further diluted in growth medium to produce the range of test concentrations (20 μg/mL, 10 μg/mL and 5 μg/mL CLA and LA, respectively). At confluence, the cells were detached by exposure to trypsin/EDTA solution (0.05/0.02% in Ca^2+- and Mg^2+-free phosphate buffered saline; Biochrom AG, Krefeld, Germany) and reseeded in 12-well plates at a concentration of 1×10^5 cells/well and cultured for 24 h to allow the cells to attach to the substratum. The medium was then replaced and a final volume of 1 ml of each CLA- and LA-test concentrations, supplemented with 5 μg LPS/mL (lipopolysaccharide, E-coli serotype 026:B6, Sigma, Taufkirchen, Germany) and 10% serum from allergic donors, was added to the wells. A similar volume of fatty acid-free medium containing the indicated stimuli and 0.4% ethanol, corresponding to the max. volume in experimental wells, was used in stimulated control. 1 ml of fresh growth medium containing 0.4% ethanol without any fatty acid and stimuli underwent the same measures of preparation and represented the unstimulated control. After incubation for 24 h at 37° C., supernatants were harvested, separated from non-adherent cells and cell debris by centrifugation (1300 rpm, 10 min), and kept at −20° C. until cytokine analysis. Cells were trypsinised to determine cell numbers and allow quantification of differences in cell proliferation in response to different treatments. • Measurement of IL-6 and IL-8 in cell culture supernatants. IL-6 and IL-8 production of epithelial cells were estimated in duplicate by enzyme-linked immunosorbent assay using commercially available ELISA kits (Pharmingen, Heidelberg, Germany) according to the manufacturer's guidelines. Standard curves and blank buffer were included in duplicate in each assay. When necessary, samples were diluted to fit into the assay range. Specific interleukin concentrations were expressed as picograms of interleukin per millilitre. • Estimation of cytokine gene expression with RT-PCR. Cultures of BEAS-2B and NHBE at an initial density of 1×10^5 cells/well were stimulated as described above and treated with cis-9,trans-11-CLA or LA in the highest concentration (20 μg/mL) for 4 h or 12 h before total cellular RNA was isolated for cytokine gene expression analysis by reverse transcriptase-polymerase chain reaction. Total RNA preparations were performed by DNase treatment according to the standard protocol of the High-Pure™ RNA isolation kit from Roche (Mannheim, Germany). For RT-PCR analysis, first strand cDNA was synthesized from extracted RNA using random primers, reagents and conditions supplied in the ProSTAR™ First-Strand RT-PCR kit from Stratagene (Amsterdam, Netherlands). One-tenth of the synthesized cDNA was subjected to PCRamplification in a total volume of 25 μl. […]

[2] = system: eosinophilic granuloctyes; test: Apoptosis of eosinophilic granulocytes in vitro; type: cell-based
IL-8 [3] = test: IL-8 in cell culture supernatants by ELISA, stimulated NHBE; type: cell-based, human; details: 24 h
Method: as §1

IL-6 [4] = test: IL-6 in cell culture supernatants by ELISA, stimulated NHBE; type: cell-based, human; details: 24 h
Method: as §1

IL-8 mRNA = test: Quantification of IL-8 mRNA by RT-PCR in stimulated bronchial epithelial cells; type: cell-based, human; details: 20 μg/mL, 4 h and 12 h, LPS/serum-stimulated, RT-PCR with cyclophilin as internal standard
Method: (§2) • Cell cultures. The transformed human bronchial epithelial cell line BEAS-2B (Clonetics Cell Systems, St. Katharinen, Germany) and the normal human bronchial epithelial cell line in primary culture (American Type Culture Collection, Manassas, Va., USA) were cultured in T-25-tissue flasks in bronchial/tracheal epithelial cell basal medium (BEBM) supplemented with a variety of growth factors including bovine pituitary extract (0,052 mg/mL), human recombinant epidermal growth factor (0.5 ng/mL), hydrocortisone (0.5 μg/mL), epinephrine (0.5 μg/mL), transferrin (0.01 mg/mL), insulin (5 μg/mL), retinoic acid (0.1 ng/mL), triiodthyronine (6.5 ng/mL), gentamicin (0.05 mg/mL) and amphotericin (0.05 μg/mL), all purchased from Clonetics Cell Systems (St. Katharinen, Germany). Cultures were held at 37° C. in a humidified atmosphere of 5% CO2 in air and the medium was changed every other day. • Stimulation of cells and fatty acid supplementation. […] Cells were trypsinised to determine cell numbers and allow quantification of differences in cell proliferation in response to different treatments. • Measurement of IL-6 and IL-8 in cell culture supernatants. […] Specific interleukin concentrations were expressed as picograms of interleukin per millilitre. • Estimation of cytokine gene expression with RT-PCR. […]

NHBE = test: Proliferation of LPS/serum-stimulated cells (cell numbers after 24 h); type: cell-based, human
Method: as §1

BEAS-2B = test: as above; type: cell-based, human
Method: as §1

IL-8 [5] = test: IL-8 in cell culture supernatants by ELISA, stimulated BEAS-2B; type: cell-based, human
Method: as §1

IL-6 mRNA = test: Quantification of IL-6 mRNA by RT-PCR in stimulated bronchial epithelial cells; type: cell-based, human; details: 20 μg/mL, 4 h and 12 h, LPS/serum-stimulated, RT-PCR with cyclophilin as internal standard
Method: as §2

[6] = BEAS-2B, 5 μg/mL, 24 h, vs stimulated control+
[7] = BEAS-2B, 10 μg/mL, 24 h, vs stimulated control+
[8] = BEAS-2B, 20 μg/mL, 24 h, vs stimulated control+
[9] = in vitro, compared to a placebo
[10] = 5 μg/mL, vs stimulated control+
[11] = 10 μg/mL, vs stimulated control+
[12] = 20 μg/mL, vs stimulated control+
[13] = BEAS-2B, 5 μg/mL, 24 h, LPS/serum-stimulated
[14] = BEAS-2B, 10 μg/mL, 24 h, LPS/serum-stimulated

SMILES	pg IL (cytokine release/100.000 cells) (IL-6 [1]; BEAS-2B, 5 μg/mL, 24 h)	pg IL (cytokine release/100.000 cells) (IL-6 [1]; BEAS-2B, 10 μg/mL, 24 h)	pg IL (cytokine release/100.000 cells) (IL-6 [1]; BEAS-2B, 20 μg/mL, 24 h)	pg IL (cytokine release/100.000 cells) (IL-8 [3]; 5 μg/mL)	pg IL (cytokine release/100.000 cells) (IL-8 [3]; 10 μg/mL)	pg IL (cytokine release/100.000 cells) (IL-8 [3]; 20 μg/mL)	pg IL (cytokine release/100.000 cells) (IL-6 [4]; 5 μg/mL)	pg IL (cytokine release/100.000 cells) (IL-6 [4]; 10 μg/mL)	pg IL (cytokine release/100.000 cells) (IL-6 [4]; 20 μg/mL)	IL-8 mRNA accumulation compared with stimulated control (c+) (IL-8 mRNA)	% inhibition of proliferation (NHBE; 5 μg/mL, LPS/serum-stimulated)	% inhibition of proliferation (NHBE; 10 μg/mL, LPS/serum-stimulated)	% inhibition of proliferation (BEAS-2B; [13])	% inhibition of proliferation (BEAS-2B; [14])	pg IL (cytokine release/100.000 cells) (IL-8 [5]; BEAS-2B, 5 μg/mL, 24 h)	pg IL (cytokine release/100.000 cells) (IL-8 [5]; BEAS-2B, 10 μg/mL, 24 h)	pg IL (cytokine release/100.000 cells) (IL-8 [5]; BEAS-2B, 20 μg/mL, 24 h)	IL-6 mRNA accumulation compared with stimulated control (c+) (IL-6 mRNA)	further results
CCCCCC/C=C/C=C\CCCCCCCC(=O)O (single isomer, unassigned) [CLA, cis-9,trans-11 isomer of conjugated linoleic acid]	983 ± 175 pg/100.000 cells	841 ± 184 pg/100.000 cells	792 ± 152 pg/100.000 cells	6212 ± 513 pg/100.000 cells	5659 ± 812 pg/100.000 cells	6793 ± 545 pg/100.000 cells	2049 ± 262 pg/100.000 cells	2062 ± 707 pg/100.000 cells	1731 ± 387 pg/100.000 cells	diminished	5.3 ± 3.7%	15.4±3.6%	7.9±5.1%	19.3±5.0%	1774 ± 154 pg/100.000 cells	1667 ± 160 pg/100.000 cells	1458 ± 136 pg/100.000 cells	diminished	% inhibition of IL-6-secretion (IL-6 [1]; [6]): 59.9±7.1%; % inhibition of IL-6-secretion (IL-6 [1]; [7]): 69.7 ± 7.6%; % inhibition of IL-6-secretion (IL-6 [1]; [8]): 76.4±4.4%; reduced expression of IL-6 (summary statement) (IL-6 [1]; [9]): about 70%; apoptosis of eosinophilic granulocytes [2]: support of apoptosis; % inhibition of IL-8-secretion (IL-8 [3]; [10]): 33.3 ± 8.1%; % inhibition of IL-8-secretion (IL-8 [3]; [11]): 46.0±8.1%; % inhibition of IL-8-secretion (IL-8 [3]; [12]): 35.9 ± 11.4%; % inhibition of IL-6-secretion (IL-6 [4]; [10]): 56.9±4.9%; % inhibition of IL-6-secretion (IL-6 [4]; [11]): 62.3 ± 10.2%; % inhibition of IL-6-secretion (IL-6 [4]; [12]): 68.6±5.3%; % inhibition of proliferation (NHBE; 20 μg/mL, LPS/serum-stimulated): 17.4±2.8%; % inhibition of proliferation (BEAS-2B; BEAS-2B, 20 μg/mL, 24 h, 5 μg LPS/mL + 10% serum from allergic donors): 32.7±5.0%; inhibition of cell proliferation of bronchial epithelial cells (summary statement) (BEAS-2B; in vitro, epithelial cells, mainly bronchial epithelial cells): up to 30%; % inhibition of IL-8-secretion (IL-8 [5]; [6]): 25.6±3.6%; % inhibition of IL-8-secretion (IL-8 [5]; [7]): 38.8 ± 5.2%; % inhibition of IL-8-secretion (IL-8 [5]; [8]): 55.2±5.2%; reduced expression of IL-8 (summary statement) (IL-8 [5]; [9]): about 50%
CCCCC/C=C\C/C=C\CCCCCCCC(=O)O [LA, cis-9,cis-12-octadecadienoic acid, reference compound]	1440 ± 78 pg/100.000 cells	1220 ± 120 pg/100.000 cells	1181 ± 256 pg/100.000 cells	6820 ± 543 pg/100.000 cells	6252 ± 462 pg/100.000 cells	5420 ± 1032 pg/100.000 cells	3052 ± 292 pg/100.000 cells	2906 ± 530 pg/100.000 cells	2007 ± 924 pg/100.000 cells	no effect	no effect	no effect	no effect	no effect	1483 ± 209 pg/100.000 cells	1341 ± 110 pg/100.000 cells	1533 ± 121 pg/100.000 cells	no effect	inhibition at 5 µg/mL (IL-6 [1]; Homo sapiens, BEAS-2B, 5 μg/mL, 24 h, vs stimulated control+, read-out: % inhibition of IL-6-secretion): 23.1 ± 8.9%; inhibition at 10 µg/mL (IL-6 [1]; Homo sapiens, BEAS-2B, 10 μg/mL, 24 h, vs stimulated control+, read-out: % inhibition of IL-6-secretion): 38.4 ± 6.6%; inhibition at 20 µg/mL (IL-6 [1]; Homo sapiens, BEAS-2B, 20 μg/mL, 24 h, vs stimulated control+, read-out: % inhibition of IL-6-secretion): 50.2 ± 14.1%; inhibition at 5 µg/mL (IL-8 [3]; Homo sapiens, 5 μg/mL, vs stimulated control+, read-out: % inhibition of IL-8-secretion): 22.8 ± 5.2%; inhibition at 10 µg/mL (IL-8 [3]; Homo sapiens, 10 μg/mL, vs stimulated control+, read-out: % inhibition of IL-8-secretion): 27.8 ± 10.8%; inhibition at 20 µg/mL (IL-8 [3]; Homo sapiens, 20 μg/mL, vs stimulated control+, read-out: % inhibition of IL-8-secretion): 43.3 ± 14.3%; inhibition at 5 µg/mL (IL-6 [4]; Homo sapiens, 5 μg/mL, vs stimulated control+, read-out: % inhibition of IL-6-secretion): 32.1 ± 5.6%; inhibition at 10 µg/mL (IL-6 [4]; Homo sapiens, 10 μg/mL, vs stimulated control+, read-out: % inhibition of IL-6-secretion): 35 ± 8.6%; inhibition at 20 µg/mL (IL-6 [4]; Homo sapiens, 20 μg/mL, vs stimulated control+, read-out: % inhibition of IL-6-secretion): 60 ± 16.3%; inhibition at 20 µg/mL (NHBE; Homo sapiens, 20 μg/mL, LPS/serum-stimulated): 8.4 ± 2.1%; effect on proliferation at lower concentrations (NHBE; concentrations below 20 μg/mL): caused cell growth; effect on proliferation at lower concentrations (BEAS-2B; BEAS-2B, concentrations below 20 μg/mL, 24 h): caused cell growth; inhibition at 20 µg/mL (BEAS-2B; Homo sapiens, BEAS-2B, 20 μg/mL, 24 h, 5 μg LPS/mL + 10% serum from allergic donors): 4.7 ± 6.9%; inhibition at 5 µg/mL (IL-8 [5]; Homo sapiens, BEAS-2B, 5 μg/mL, 24 h, vs stimulated control+, read-out: % inhibition of IL-8-secretion): 19.3 ± 8.7%; inhibition at 10 µg/mL (IL-8 [5]; Homo sapiens, BEAS-2B, 10 μg/mL, 24 h, vs stimulated control+, read-out: % inhibition of IL-8-secretion): 30.6 ± 3.6%; inhibition at 20 µg/mL (IL-8 [5]; Homo sapiens, BEAS-2B, 20 μg/mL, 24 h, vs stimulated control+, read-out: % inhibition of IL-8-secretion): 33.5 ± 5%
